According to patent US20250186405A1, “Compound For Use In Treating Narcolepsy” (Alkermes, Inc., priority 2023, published 2025):

Experiments:
[1] = test system: subjects with idiopathic hypersomnia (IH); experiment: Part 6 IH: Karolinska Sleepiness Scale (KSS); format: in vivo, human; details: for Change From Day −1 in Average Karolinska Sleepiness Scale, LSM difference vs placebo: N = 8; for Change From Day −1 in Average Karolinska Sleepiness Scale, LSM: N = 8, average of 1, 2, 4, 6, 8 h
Method: At points within the study, subjects were asked to rate their sleepiness using the KSS with regard to the level of sleepiness they experienced over the past 5 minutes.
The KSS is a validated, self-reported outcome measure of subjective sleepiness. The KSS was developed as a one-dimensional measure of sleepiness and has been validated against assessments like EEG and electrooculography activity (Akerstedt and Gillberg 1990). The KSS is comprised of a single question that asks the subject to rate their sleepiness in the immediately preceding 5 minutes on a 9-point scale where 1=extremely alert and 9=very sleepy, great effort to keep awake, fighting sleep. The KSS takes approximately 10 to 15 seconds to complete. Thus, the KSS is well suited for repeated measurement at short intervals as it assesses situational sleepiness within a short timeframe.
The PD parameters in the POC evaluation (e.g., changes from baseline in sleep latency on MWT, number of errors on SART and level of sleepiness on KSS at matched time points) were summarized using descriptive statistics for each time point by dose level.

[2] = Part 3 relative bioavailability (tablet vs powder-in-capsule) with food effect: plasma PK, 10 mg; format: in vivo, human; details: for increase of peak plasma concentration, fed vs fasted: 10 mg tablet; for AUC(0-inf) / half-life / Cmax / Tmax: human, plasma, oral
Method: Part 3 compared the relative bioavailability (RelBA) of Compound A between a tablet formulation and the powder-in-capsule formulation. In addition, the food effect (FE) on the bioavailability of Compound A was assessed following administration of tablet formulation. Dose levels were as follows:
The Part 3 (RelBA with FE) evaluation was conducted using a 2-sequence, 3-period crossover study design in approximately 12 subjects. Subjects in Part 3 were randomized 1:1 to receive 1 of 2 sequences consisting of 3 periods with up to 72 hours of washout between treatments. The first 2 periods were dosed under fasted state and the third period was dosed in a fed state (high-fat meal).
Sequence 1 began with powder-in-capsule formulation in Period 1 (fasted), followed by tablet formulation in Period 2 (fasted) and tablet formulation in Period 3 (fed). Sequence 2 began with tablet formulation in Period 1 (fasted), followed by powder-in-capsule formulation in Period 2 (fasted) and tablet formulation in Period 3 (fed).
In treatment period(s) under the fed condition, following overnight fast, all subjects were given a high-fat breakfast. Within 30 minutes of starting the consumption of the breakfast, the assigned treatment was administered. […] There was a 72-hour washout period between the treatments.
Relative bioavailability analysis: A mixed effects model was used to evaluate the effect of a tablet formulation on the PK of Compound A. The primary PK parameters, namely, Cmax, AUC0-t, and […], were logarithmically transformed and used as the dependent variable, with treatment (tablet formulation or powder-in-capsule) as a fixed effect, and subject as a random effect. The ratio of the geometric means of the 2 treatments was obtained from the analysis, and a 2-sided 90% CI for the ratio was estimated. In this comparison, the same dose level of Compound A administered under tablet formulation is the test and powder-in-capsule is the reference. Thus, the comparison of interest is as follows: Fasted in new formulation (Test) vs Fasted in powder-in-capsule (Reference).
Food effect analysis: A mixed effects model was used to evaluate the effect of a high-fat, high caloric meal on the PK of Compound A in the tablet formulation. The primary PK parameters, namely, Cmax, AUC0-t, and AUC0-∞, were logarithmically transformed and used as the dependent variable, with treatment (fed or fasted) as a fixed effect, and subject as a random effect. The ratio of the geometric means of the 2 treatments was obtained from the analysis, and a 2-sided 90% CI for the ratio was estimated. In this comparison, the same dose level of Compound A administered under fed conditions is the test and Compound A administered under fasted conditions is the reference. Thus, the comparison of interest is as follows: Fed a high-fat meal in tablet formulation (Test) vs Fasted in tablet formulation (Reference).
Food effect was studied following a high fat (cohort 1) and low fat (cohort 2) meal. Both cohorts were completed in independent studies. For cohort 1, a high-fat meal was served consisting of 800-1,000 total calories with 150 calories from protein, 250 calories from carbohydrates, 500-600 calories from fat (≥50 percent of calories from fat). For cohort 2, a low-fat meal was served consisting of 400-500 total calories with 100-125 calories from fat (25 percent of calories from fat).

[3] = 10 mg, 10 mg Capsule (Fasted), Cohort 1, N = 9
[4] = 10 mg, 10 mg Tablet (Fasted), Cohort 1, N = 8
[5] = 10 mg, 10 mg Tablet (Fasted), Cohort 2
[6] = 10 mg, 10 mg Tablet (Fasted), Cohort 2, N = 8
[7] = 10 mg, 10 mg Tablet (Fed, high-fat), Cohort 1
[8] = 10 mg, 10 mg Tablet (Fed, low-fat), Cohort 2
[9] = 10 mg, 10 mg Tablet (Fed, low-fat), Cohort 2, N = 10

CS(=O)(=O)N[C@H]1CCCN2C(=O)COc3ccccc3C3CCC(CC3)OCC12 (stereo partly drawn) [Compound A, N-[(4S,4aR,7α,10α)-1,2,3,4,4a,5,7,8,9,10,16,17-dodecahydro-17-oxo-7,10-ethanopyrido[1,2-d][1,7,4]benzodioxaazacyclotridecin-4-yl]methanesulfonamide]
LS mean difference vs placebo in change from Day −1, average KSS ([1]; 5 mg): −1.08
Change From Day −1 in Average Karolinska Sleepiness Scale, LSM difference vs placebo ([1]; 5 mg): −1.08
Change From Day −1 in Average Karolinska Sleepiness Scale, LSM ([1]; 5 mg): −1.60
LS mean difference vs placebo in change from Day −1, average KSS ([1]; 12 mg): −0.80
Change From Day −1 in Average Karolinska Sleepiness Scale, LSM difference vs placebo ([1]; 12 mg): −0.80
Change From Day −1 in Average Karolinska Sleepiness Scale, LSM ([1]; 12 mg): −1.33
LS mean difference vs placebo in change from Day −1, average KSS ([1]; 25 mg): −2.18
Change From Day −1 in Average Karolinska Sleepiness Scale, LSM difference vs placebo ([1]; 25 mg): −2.18
Change From Day −1 in Average Karolinska Sleepiness Scale, LSM ([1]; 25 mg): −2.70
increase of peak plasma concentration, fed vs fasted ([2]; high-fat meal, Cohort 1): 3 fold
increase of peak plasma concentration, fed vs fasted ([2]; low-fat meal, Cohort 2): approximately 2 fold
AUC0-∞ ratio (tablet/capsule) ([2]; 10 mg, fasted): 1.2
Cmax ratio (tablet Cmax/capsule Cmax) ([2]; 10 mg, fasted): 0.9
AUC(0-inf) [2, 3]: 124 ng·h/mL
half-life [2, 3]: 10.8 h
Cmax ([2]; 10 mg, 10 mg Capsule (Fasted), Cohort 1, geometric mean): 11.8 ng/mL
Tmax ([2]; 10 mg, 10 mg Capsule (Fasted), Cohort 1, median): 2 h
AUC(0-inf) [2, 4]: 144 ng·h/mL
half-life [2, 4]: 11 h
Cmax ([2]; 10 mg, 10 mg Tablet (Fasted), Cohort 1, geometric mean): 10.8 ng/mL
Tmax ([2]; 10 mg, 10 mg Tablet (Fasted), Cohort 1, median): 3.5 h
Cmax [2, 5]: 14.2 ng/mL
Tmax [2, 5]: 2.5 h
AUC(0-inf) [2, 6]: 189 ng·h/mL
half-life [2, 6]: 9.22 h
AUC(0-inf) [2, 7]: 140 ng·h/mL
Cmax [2, 7]: 30.1 ng/mL
half-life [2, 7]: 2.8 h
Tmax ([2]; 10 mg, 10 mg Tablet (Fed, high-fat), Cohort 1, median): 3.5 h
Cmax [2, 8]: 32.1 ng/mL
Tmax [2, 8]: 3.01 h
AUC(0-inf) [2, 9]: 180 ng·h/mL
half-life [2, 9]: 9.69 h
